From PMC5218480 (PLoS ONE, 2017)

Tested on: MV-4-11 cells
Assay: Gene expression microarray analysis (Affymetrix PrimeView) and GSEA
Type: cell-based, human
Design: RFU PODN (11730768_x_at) / Fold change /veh PODN (11730768_x_at) / RFU LINC00158 (11744669_a_at) / Fold change /veh LINC00158 (11744669_a_at) / RFU DUSP10 (11751237_a_at) / Fold change /veh DUSP10 (11751237_a_at) / RFU ID3 (11757404_x_at) / Fold change /veh ID3 (11757404_x_at) / RFU PLEKHG5 (11737974_s_at) / Fold change /veh PLEKHG5 (11737974_s_at) / RFU LRRC4B (11730491_at) / Fold change /veh LRRC4B (11730491_at) / RFU GIMAP4 (11747438_a_at) / Fold change /veh GIMAP4 (11747438_a_at) / RFU KRT8 (11758183_x_at) / Fold change /veh KRT8 (11758183_x_at) / RFU CNN1 (11734310_a_at) / Fold change /veh CNN1 (11734310_a_at) / RFU VPS37D (11726825_at) / Fold change /veh VPS37D (11726825_at) / RFU C10orf10 (11716522_x_at) / Fold change /veh C10orf10 (11716522_x_at) / RFU KIR2DL2 /// KIR2DL4 /// KIR2DL5A /// KIR2DL5B /// KIR2DS1 /// KIR2DS2 /// KIR2DS3 /// KIR2DS4 /// KIR3DL3 /// KIR3DL3 /// KIR3DS1 (11738374_at) / Fold change /veh KIR2DL2 /// KIR2DL4 /// KIR2DL5A /// KIR2DL5B /// KIR2DS1 /// KIR2DS2 /// KIR2DS3 /// KIR2DS4 /// KIR3DL3 /// KIR3DL3 /// KIR3DS1 (11738374_at) / RFU C1QL1 (11718748_at) / Fold change /veh C1QL1 (11718748_at) / RFU TMPRSS4 (11747572_a_at) / Fold change /veh TMPRSS4 (11747572_a_at) / RFU HAMP (11756126_x_at) / Fold change /veh HAMP (11756126_x_at) / RFU RNFT2 (11725882_a_at) / Fold change /veh RNFT2 (11725882_a_at) / RFU NR4A2 (11747474_a_at) / Fold change /veh NR4A2 (11747474_a_at) / RFU ABCC12 (11746883_a_at) / Fold change /veh ABCC12 (11746883_a_at) / RFU TMEM136 (11760407_x_at) / Fold change /veh TMEM136 (11760407_x_at) / RFU CLDN22 /// WWC2 (11732394_at) / Fold change /veh CLDN22 /// WWC2 (11732394_at) / RFU HLA-DPB1 (11760878_x_at) / Fold change /veh HLA-DPB1 (11760878_x_at) / RFU SPINT1 (11716480_a_at) / Fold change /veh SPINT1 (11716480_a_at) / RFU GAP43 (11754022_s_at) / Fold change /veh GAP43 (11754022_s_at) / RFU A4GNT (11735810_at) / Fold change /veh A4GNT (11735810_at) / RFU PRB3 (11715151_x_at) / Fold change /veh PRB3 (11715151_x_at) / RFU TUBB4B (11761932_at) / Fold change /veh TUBB4B (11761932_at) / RFU CAPN14 (11732068_a_at) / Fold change /veh CAPN14 (11732068_a_at) / RFU TMCC2 (11721928_a_at) / Fold change /veh TMCC2 (11721928_a_at) / RFU IRGQ (11745062_a_at) / Fold change /veh IRGQ (11745062_a_at) / RFU FAM174B (11720279_a_at) / Fold change /veh FAM174B (11720279_a_at) / RFU TMPRSS4 (11748680_a_at) / Fold change /veh TMPRSS4 (11748680_a_at) / RFU FAM212B (11763350_a_at) / Fold change /veh FAM212B (11763350_a_at) / RFU PLEKHG5 (11743358_a_at) / Fold change /veh PLEKHG5 (11743358_a_at) / RFU ZSCAN30 (11745921_a_at) / Fold change /veh ZSCAN30 (11745921_a_at) / RFU CMKLR1 (11741424_a_at) / Fold change /veh CMKLR1 (11741424_a_at) / RFU LOC101060620 /// MAPK8IP1 (11723275_at) / Fold change /veh LOC101060620 /// MAPK8IP1 (11723275_at) / RFU SPTSSB (11747773_x_at) / Fold change /veh SPTSSB (11747773_x_at) / RFU PRSS12 (11739890_at) / Fold change /veh PRSS12 (11739890_at) / RFU BIN1 (11741810_x_at) / Fold change /veh BIN1 (11741810_x_at) / RFU WNT11 (11732464_a_at) / Fold change /veh WNT11 (11732464_a_at) / RFU C10orf10 (11716521_a_at) / Fold change /veh C10orf10 (11716521_a_at) / RFU C5orf56 (11738089_at) / Fold change /veh C5orf56 (11738089_at) / RFU CYB561 (11721691_x_at) / Fold change /veh CYB561 (11721691_x_at) / RFU ANKRD19P (11752326_a_at) / Fold change /veh ANKRD19P (11752326_a_at) / RFU OR2T12 /// OR2T33 /// OR2T8 (11738714_s_at) / Fold change /veh OR2T12 /// OR2T33 /// OR2T8 (11738714_s_at) / RFU VCAN (11748164_a_at) / Fold change /veh VCAN (11748164_a_at) / RFU JSRP1 (11732532_at) / Fold change /veh JSRP1 (11732532_at) / RFU KRTAP10-11 (11738290_x_at) / Fold change /veh KRTAP10-11 (11738290_x_at) / RFU MYO3A (11730013_a_at) / Fold change /veh MYO3A (11730013_a_at) / RFU EBF3 (11725865_a_at) / Fold change /veh EBF3 (11725865_a_at) / RFU CAMK2N1 (11719241_x_at) / Fold change /veh CAMK2N1 (11719241_x_at) / RFU C5orf56 (11738088_a_at) / Fold change /veh C5orf56 (11738088_a_at) / RFU OLFML3 (11715873_a_at) / Fold change /veh OLFML3 (11715873_a_at) / RFU LOC100653217 /// NTM (11731650_a_at) / Fold change /veh LOC100653217 /// NTM (11731650_a_at) / RFU MAPK11 (11762145_a_at) / Fold change /veh MAPK11 (11762145_a_at) / RFU FIZ1 (11724087_x_at) / Fold change /veh FIZ1 (11724087_x_at) / RFU OASL (11726364_x_at) / Fold change /veh OASL (11726364_x_at) / RFU SOX15 (11748057_x_at) / Fold change /veh SOX15 (11748057_x_at) / RFU CD79A (11719716_a_at) / Fold change /veh CD79A (11719716_a_at) / RFU HIST1H1D (11736915_at) / Fold change /veh HIST1H1D (11736915_at) / RFU CASKIN2 (11723855_a_at) / Fold change /veh CASKIN2 (11723855_a_at) / RFU LOC730098 (11760151_x_at) / Fold change /veh LOC730098 (11760151_x_at) / RFU OR4N2 (11742367_at) / Fold change /veh OR4N2 (11742367_at) / RFU PRRT2 (11749266_a_at) / Fold change /veh PRRT2 (11749266_a_at) / RFU SNX32 (11753110_a_at) / Fold change /veh SNX32 (11753110_a_at) / RFU CDHR5 (11726645_a_at) / Fold change /veh CDHR5 (11726645_a_at) / RFU RCAN1 (11760418_a_at) / Fold change /veh RCAN1 (11760418_a_at) / RFU FAM167A (11723789_a_at) / Fold change /veh FAM167A (11723789_a_at) / RFU FAM26E (11764081_at) / Fold change /veh FAM26E (11764081_at) / RFU ISYNA1 (11749810_s_at) / Fold change /veh ISYNA1 (11749810_s_at) / RFU ACY1 (11761880_at) / Fold change /veh ACY1 (11761880_at) / RFU 11764098_at / Fold change /veh 11764098_at / RFU SAMD14 (11745864_x_at) / Fold change /veh SAMD14 (11745864_x_at) / RFU NPB (11741838_a_at) / Fold change /veh NPB (11741838_a_at) / RFU TMPRSS6 (11731388_a_at) / Fold change /veh TMPRSS6 (11731388_a_at) / RFU KRTAP10-2 (11738614_at) / Fold change /veh KRTAP10-2 (11738614_at) / RFU ARHGAP8 /// PRR5-ARHGAP8 (11727945_x_at) / Fold change /veh ARHGAP8 /// PRR5-ARHGAP8 (11727945_x_at) / RFU KRTAP5-7 /// NADSYN1 (11734609_at) / Fold change /veh KRTAP5-7 /// NADSYN1 (11734609_at) / RFU RASL12 (11751679_a_at) / Fold change /veh RASL12 (11751679_a_at) / RFU CDKN2B (11736163_a_at) / Fold change /veh CDKN2B (11736163_a_at) / RFU PRF1 (11729649_at) / Fold change /veh PRF1 (11729649_at) / RFU, ZNF638 /// ZNF638-IT1 / Fold change vs veh, ZNF638 /// ZNF638-IT1 / RFU, PANK3 / Fold change vs veh, PANK3 / RFU, SH3YL1 / Fold change vs veh, SH3YL1 / RFU, ZEB2 / Fold change vs veh, ZEB2 / RFU, NRIP1 / Fold change vs veh, NRIP1 / RFU, PTTG1IP / Fold change vs veh, PTTG1IP / RFU, CAPN2 / Fold change vs veh, CAPN2 / RFU, MED14 / Fold change vs veh, MED14 / RFU, SNORA58 / Fold change vs veh, SNORA58 / RFU, C1orf63 / Fold change vs veh, C1orf63 / RFU, LRRFIP1 / Fold change vs veh, LRRFIP1 / RFU, NDUFAF7 / Fold change vs veh, NDUFAF7 / RFU, SLC12A2 / Fold change vs veh, SLC12A2 / RFU, IBTK / Fold change vs veh, IBTK / RFU, ESF1 / Fold change vs veh, ESF1 / Fold change vs veh, TMEM50B / RFU, TAOK1 / Fold change vs veh, TAOK1 / RFU, ACBD3 / Fold change vs veh, ACBD3 / RFU, TMA16 / Fold change vs veh, TMA16 / RFU, RWDD3 / Fold change vs veh, RWDD3 / RFU, BCAT1 / Fold change vs veh, BCAT1 / RFU, EDEM3 / Fold change vs veh, EDEM3 / RFU, TMEM33 / Fold change vs veh, TMEM33 / RFU, WDR75 / Fold change vs veh, WDR75 / RFU, AHCTF1 / Fold change vs veh, AHCTF1 / RFU, TFRC / Fold change vs veh, TFRC / RFU, ZDHHC17 / Fold change vs veh, ZDHHC17 / RFU, NOM1 / Fold change vs veh, NOM1 / RFU, ARL8B / Fold change vs veh, ARL8B / RFU, ZBTB11 / Fold change vs veh, ZBTB11 / RFU, TAMM41 / Fold change vs veh, TAMM41 / RFU, KIAA1704 /// LOC100996395 / Fold change vs veh, KIAA1704 /// LOC100996395 / RFU, ING1 / Fold change vs veh, ING1 / RFU, TRMT61B / Fold change vs veh, TRMT61B / RFU, FUBP3 / Fold change vs veh, FUBP3 / RFU, TP53 / Fold change vs veh, TP53 / RFU, TNKS2 / Fold change vs veh, TNKS2 / RFU, ZFP14 / Fold change vs veh, ZFP14 / RFU, ACTR2 / Fold change vs veh, ACTR2 / RFU, PPP3R1 / Fold change vs veh, PPP3R1 / RFU, PIK3R1 / Fold change vs veh, PIK3R1 / RFU, HNRNPA1 / Fold change vs veh, HNRNPA1 / RFU, RNF170 / Fold change vs veh, RNF170 / RFU, ZNF28 / Fold change vs veh, ZNF28 / RFU, RNGTT / Fold change vs veh, RNGTT / RFU, OGT / Fold change vs veh, OGT / RFU, BRD1 / Fold change vs veh, BRD1 / RFU, MARS / Fold change vs veh, MARS / RFU, ZNF655 / Fold change vs veh, ZNF655 / RFU, FAHD1 / Fold change vs veh, FAHD1 / RFU, BDP1 / Fold change vs veh, BDP1 / RFU, LRRCC1 / Fold change vs veh, LRRCC1 / RFU, ARID1A / Fold change vs veh, ARID1A / RFU, ZNF146 / Fold change vs veh, ZNF146 / RFU, ZNF330 / Fold change vs veh, ZNF330 / RFU, GPN3 / Fold change vs veh, GPN3 / RFU, C9orf123 / Fold change vs veh, C9orf123 / RFU, N4BP2L2 / Fold change vs veh, N4BP2L2 / RFU, ARFIP1 / Fold change vs veh, ARFIP1 / RFU, FAM179B / Fold change vs veh, FAM179B / RFU, BCL10 / Fold change vs veh, BCL10 / RFU, UHRF1BP1L / Fold change vs veh, UHRF1BP1L / RFU, BET1 / Fold change vs veh, BET1 / RFU, CNOT2 / Fold change vs veh, CNOT2 / RFU, ZNF268 / Fold change vs veh, ZNF268 / Fold change vs veh, ZNF507 / RFU, DGCR2 / Fold change vs veh, DGCR2 / RFU, WDSUB1 / Fold change vs veh, WDSUB1 / Fold change vs veh, HSP90B1 /// MIR3652 / RFU, ADSS / Fold change vs veh, ADSS / RFU, GK / Fold change vs veh, GK / RFU, ZNF148 / Fold change vs veh, ZNF148 / RFU, TAF9 / Fold change vs veh, TAF9 / RFU, SLC1A5 / Fold change vs veh, SLC1A5 / RFU, SLMO2 / Fold change vs veh, SLMO2 / RFU, ABCC4 / Fold change vs veh, ABCC4 / RFU, LOC101060439 /// RAP1B / Fold change vs veh, LOC101060439 /// RAP1B / RFU, RFX7 / Fold change vs veh, RFX7 / RFU, GTPBP10 / Fold change vs veh, GTPBP10 / RFU, CNEP1R1 / Fold change vs veh, CNEP1R1 / RFU, BIVM-ERCC5 /// ERCC5 / Fold change vs veh, BIVM-ERCC5 /// ERCC5 / RFU, ILF3 / Fold change vs veh, ILF3 / RFU 11762660_at / Fold change /veh 11762660_at / RFU VCAN (11757783_s_at) / Fold change /veh VCAN (11757783_s_at) / RFU DDX43 (11728927_at) / Fold change /veh DDX43 (11728927_at) / RFU KRT8 (11758188_x_at) / Fold change /veh KRT8 (11758188_x_at) / RFU NKD1 (11759106_at) / Fold change /veh NKD1 (11759106_at) / RFU SRD5A1 (11742802_a_at) / Fold change /veh SRD5A1 (11742802_a_at) / RFU TPSAB1 /// TPSB2 (11721975_s_at) / Fold change /veh TPSAB1 /// TPSB2 (11721975_s_at) / RFU GSTM3 (11746129_a_at) / Fold change /veh GSTM3 (11746129_a_at) / RFU IL23R (11737362_x_at) / Fold change /veh IL23R (11737362_x_at) / RFU TMEM51 (11727254_a_at) / Fold change /veh TMEM51 (11727254_a_at) / RFU PIWIL2 (11732686_x_at) / Fold change /veh PIWIL2 (11732686_x_at) / RFU ORM1 (11744905_x_at) / Fold change /veh ORM1 (11744905_x_at) / RFU CCDC152 (11743942_at) / Fold change /veh CCDC152 (11743942_at) / RFU ECM1 (11717891_a_at) / Fold change /veh ECM1 (11717891_a_at) / RFU IL23R (11748794_a_at) / Fold change /veh IL23R (11748794_a_at) / RFU TNFAIP8L3 (11732012_x_at) / Fold change /veh TNFAIP8L3 (11732012_x_at) / RFU MBOAT4 (11741988_at) / Fold change /veh MBOAT4 (11741988_at) / RFU 11764193_at / Fold change /veh 11764193_at / RFU TMEM53 (11763286_at) / Fold change /veh TMEM53 (11763286_at) / RFU MAGEB2 (11727129_at) / Fold change /veh MAGEB2 (11727129_at) / RFU TMEM200A (11744735_a_at) / Fold change /veh TMEM200A (11744735_a_at) / RFU CCDC152 (11751479_a_at) / Fold change /veh CCDC152 (11751479_a_at) / RFU FAM211A (11726209_a_at) / Fold change /veh FAM211A (11726209_a_at) / RFU RGS16 (11746705_a_at) / Fold change /veh RGS16 (11746705_a_at) / RFU VCAN (11755009_s_at) / Fold change /veh VCAN (11755009_s_at) / RFU RHOB (11743442_s_at) / Fold change /veh RHOB (11743442_s_at) / RFU RGS16 (11720943_a_at) / Fold change /veh RGS16 (11720943_a_at) / RFU RGS16 (11720944_at) / Fold change /veh RGS16 (11720944_at) / RFU, VPS4B / Fold change vs veh, VPS4B / RFU, CREB1 / Fold change vs veh, CREB1 / RFU, DNAJC13 / Fold change vs veh, DNAJC13 / RFU, GNAQ / Fold change vs veh, GNAQ / RFU, CDK5R1 / Fold change vs veh, CDK5R1 / RFU, ZRANB3 / Fold change vs veh, ZRANB3 / RFU, CUL4A / Fold change vs veh, CUL4A / RFU, CCNY / Fold change vs veh, CCNY / RFU, UFL1 / Fold change vs veh, UFL1 / RFU, COG3 / Fold change vs veh, COG3 / RFU, DIAPH2 / Fold change vs veh, DIAPH2 / RFU, SKA2 / Fold change vs veh, SKA2 / RFU, AFF3 / Fold change vs veh, AFF3 / RFU, LMF1 / Fold change vs veh, LMF1 / RFU, IPO11 / Fold change vs veh, IPO11 / RFU, DFFB / Fold change vs veh, DFFB / RFU, FOXP1 / Fold change vs veh, FOXP1 / RFU, CARD8 / Fold change vs veh, CARD8 / RFU, STRN3 / Fold change vs veh, STRN3 / RFU, ADK / Fold change vs veh, ADK / RFU, RASSF2 / Fold change vs veh, RASSF2 / RFU, WIPF1 / Fold change vs veh, WIPF1 / RFU, LARP1B / Fold change vs veh, LARP1B / RFU, RASA1 / Fold change vs veh, RASA1 / RFU, RB1 / Fold change vs veh, RB1 / RFU, PPFIA1 / Fold change vs veh, PPFIA1 / RFU, MAT2A / Fold change vs veh, MAT2A / RFU, CCT5 / Fold change vs veh, CCT5 / RFU, WDR92 / Fold change vs veh, WDR92 / RFU, CUX1 / Fold change vs veh, CUX1 / RFU, TTC7A / Fold change vs veh, TTC7A / RFU, TMEM135 / Fold change vs veh, TMEM135 / RFU, DEPTOR / Fold change vs veh, DEPTOR / RFU, CPM / Fold change vs veh, CPM / RFU, DNAJB6 / Fold change vs veh, DNAJB6 / RFU, CACNA2D3 / Fold change vs veh, CACNA2D3 / RFU, DTX4 / Fold change vs veh, DTX4 / RFU, TFCP2 / Fold change vs veh, TFCP2 / RFU, GMCL1 /// GMCL1P1 / Fold change vs veh, GMCL1 /// GMCL1P1 / RFU, AEBP2 / Fold change vs veh, AEBP2 / RFU, SNHG1 /// SNORD22 /// SNORD25 /// SNORD26 /// SNORD27 /// SNORD28 /// SNORD29 /// SNORD31 / Fold change vs veh, SNHG1 /// SNORD22 /// SNORD25 /// SNORD26 /// SNORD27 /// SNORD28 /// SNORD29 /// SNORD31 / Fold change (Aza/veh), C12orf56 (ProbeSet 11735607_a_at) / Fold change (ACY-1035/veh), C12orf56 (ProbeSet 11735607_a_at) / Fold change (Aza/veh), FGFR1OP (ProbeSet 11751329_s_at) / Fold change (ACY-1035/veh), FGFR1OP (ProbeSet 11751329_s_at) / Fold change (Aza/veh), VPS36 (ProbeSet 11739960_a_at) / Fold change (ACY-1035/veh), VPS36 (ProbeSet 11739960_a_at) / RFU SYPL1 (11715823_x_at) / Fold change /veh SYPL1 (11715823_x_at) / RFU IGFBP7 (11715501_s_at) / Fold change /veh IGFBP7 (11715501_s_at) / RFU REEP3 (11722064_at) / Fold change /veh REEP3 (11722064_at) / RFU IGLL1 (11728026_x_at) / Fold change /veh IGLL1 (11728026_x_at): dose or concentration left out as unconfirmed
Details: MV-4-11 cells, 48 hours

## Nc1ncn([C@@H]2O[C@H](CO)[C@@H](O)[C@H]2O)c(=O)n1 [azacitidine]
  RFU RHOB (11743442_s_at): 110.59 RFU
